Drawing on ChEMBL document CHEMBL4814058, “Light-inducible control of cellular proliferation and differentiation by a Hedgehog signaling inhibitor” (Bioorg Med Chem, 2021), this text covers inhibition, Activity and degraded for 3 compounds.

For data set [1], the system named is NIH/3T3. The data set can be described thus: Inhibition of SAG-induced hedgehog signalling in mouse NIH/3T3 cells assessed as reduction in Gli1 mRNA expression at 0.1 to 10 uM measured after 6 hrs by RT-PCR analysis. Conditions: dose 0.1-10 µM. It is filed as cell-based.
Data set [2] has as its system NIH/3T3. The data set can be described thus: Inhibition of hedgehog signalling in mouse NIH/3T3 cells assessed as reduction in Gli1 mRNA expression at 0.1 to 10 uM measured after 6 hrs by RT-PCR analysis. The format is cell-based. The settings on record: dose 0.1-10 µM.
For data set [3], the system named is NIH/3T3. Briefly: Inhibition of hedgehog signalling in mouse NIH/3T3 cells assessed as reduction in Shh mRNA expression at 0.1 to 10 uM measured after 6 hrs by RT-PCR analysis. The settings on record: dose 0.1-10 µM. The format is cell-based.
The test system of data set [4] is NIH/3T3. The data set can be described thus: Inhibition of SAG-induced hedgehog signalling in mouse NIH/3T3 cells assessed as reduction in Shh mRNA expression at 0.1 to 10 uM measured after 6 hrs by RT-PCR analysis. The format is cell-based. Conditions: dose 0.1-10 µM.
Data set [5] relates to NIH/3T3. Briefly: Inhibition of hedgehog signalling in mouse NIH/3T3 cells assessed as reduction in Ptc mRNA expression at 0.1 to 10 uM measured after 6 hrs by RT-PCR analysis. It is filed as cell-based. The settings on record: dose 0.1-10 µM.
The subject of data set [6] is NIH/3T3. The data set can be described thus: Inhibition of SAG-induced hedgehog signalling in mouse NIH/3T3 cells assessed as reduction in Ptc mRNA expression at 0.1 to 10 uM measured after 6 hrs by RT-PCR analysis. The format is cell-based. Conditions: dose 0.1-10 µM.
The nature of data set [7]: Effect on differentiation of ICR mouse cerebellar granule neuron assessed as effect on Ki67-negative cells with neurite outgrowth at 100 nM incubated for 48 hrs by TUBB3 staining based immunofluorescence assay. The format is tissue-based. Conditions: cerebellar granule neurone, 0.1 µM.
Data set [8] in a line: Effect on differentiation of ICR mouse cerebellar granule neuron assessed as effect on neurite length of Ki67-negative cells at 100 nM incubated for 48 hrs by TUBB3 staining based immunofluorescence assay. The settings on record: cerebellar granule neurone, 0.1 µM. It is filed as tissue-based.
Data set [9] concerns NIH/3T3. Briefly: Inhibition of SAG-induced hedgehog signalling in mouse NIH/3T3 cells assessed as reduction in Gli1 mRNA expression at > 1 uM measured after 6 hrs by RT-PCR analysis. The format is cell-based. Conditions: dose microM >1, time 6.0 hrs.
The subject of data set [10] is NIH3T3. The data set can be described thus: Cytotoxicity against mouse NIH/3T3 cells assessed as reduction in cell viability at 1 to 10 uM irradiated with 4 J/cm2 light followed by compound exposure and measured after 6 hrs by MTT assay. It is filed as cell-based. Conditions: nih3t3, 6 h, dose 1-10 µM. Background: Formazan colour is commonly taken as a measure of viable cells.

Data set [11] is described as follows: Effect on differentiation of ICR mouse cerebellar granule neuron assessed as effect on neurite length of Ki67-positive cells at 100 nM incubated for 48 hrs by TUBB3 staining based immunofluorescence assay. The format is tissue-based. The settings on record: cerebellar granule neurone, 0.1 µM.
Data set [12] is described as follows: Effect on differentiation of ICR mouse cerebellar granule neuron assessed as effect on Ki67-positive cells with low neurites at 100 nM incubated for 48 hrs by TUBB3 staining based immunofluorescence assay. The format is tissue-based. Conditions: cerebellar granule neurone, 0.1 µM.
The test system of data set [13] is Cerebellar granule neurone. The data set can be described thus: Antiproliferative activity against ICR mouse cerebellar granule neurons assessed as reduction in Ki67 expression at 100 nM irradiated with 4 J/cm2 light followed by incubation with compound for 48 hrs by immunostaining analysis. It is filed as functional, tissue-based.
Data set [14] deals with NIH3T3. Briefly: Cytotoxicity against mouse NIH/3T3 cells assessed as reduction in cell viability at 1 to 10 uM incubated for 6 hrs by MTT assay. The format is cell-based. The settings on record: nih3t3, 6 h, dose 1-10 µM.
Data set [15] in a line: Effect on differentiation of ICR mouse cerebellar granule neuron assessed as effect on neurite length of Ki67-positive cells at 100 nM irradiated with 4 J/cm2 light followed by incubation with compound for 48 hrs by TUBB3 staining based immunofluorescence assay. The settings on record: cerebellar granule neurone, 0.1 µM. It is filed as tissue-based.
A short description of data set [16]: Photostability of compound assessed as drug degradation at 1 mM irradiated with 2 J/cm2 light by HPLC/MS analysis. Conditions: read-out: Drug degradation. It is filed as physicochemical.
Data set [17] is described as follows: Effect on differentiation of ICR mouse cerebellar granule neuron assessed as effect on Ki67-positive cells with low neurites at 100 nM irradiated with 4 J/cm2 light followed by incubation with compound for 48 hrs by TUBB3 staining based immunofluorescence assay. Conditions: cerebellar granule neurone, 0.1 µM. It is filed as tissue-based.
Data set [18] is described as follows: Effect on differentiation of ICR mouse cerebellar granule neuron assessed as effect on Ki67-negative cells with neurite outgrowth at 100 nM irradiated with 4 J/cm2 light followed by incubation with compound for 48 hrs by TUBB3 staining based immunofluorescence assay. The format is tissue-based. The settings on record: cerebellar granule neurone, 0.1 µM.
A short description of data set [19]: Photostability of compound assessed as drug degradation at 1 mM irradiated with 8 J/cm2 light by HPLC/MS analysis. It is filed as physicochemical. The settings on record: read-out: Drug degradation.
Data set [20] relates to NIH/3T3. Briefly: Inhibition of SAG-induced hedgehog signalling in mouse NIH/3T3 cells assessed as reduction in Gli1 mRNA expression at 1 uM irradiated with 4 J/cm2 light followed by compound exposure and measured after 6 hrs by RT-PCR analysis. It is filed as cell-based.
The subject of data set [21] is Cerebellar granule neurone. Briefly: Antiproliferative activity against ICR mouse cerebellar granule neurons assessed as reduction in Ki67 expression at 100 nM incubated for 48 hrs by immunostaining analysis. It is filed as functional, tissue-based.
Data set [22] in a line: Effect on differentiation of ICR mouse cerebellar granule neuron assessed as effect on neurite length of Ki67-negative cells at 100 nM irradiated with 4 J/cm2 light followed by incubation with compound for 48 hrs by TUBB3 staining based immunofluorescence assay. It is filed as tissue-based. The settings on record: cerebellar granule neurone, 0.1 µM.
Data set [23] has as its system NIH/3T3. The data set can be described thus: Inhibition of hedgehog signalling in mouse NIH/3T3 cells assessed as reduction in Gli1 mRNA expression at 1 uM measured after 6 hrs by RT-PCR analysis. It is filed as cell-based.

Molecules are shown by their SMILES. Activity calls are given as the source filed them. No cut-off for these calls is given here.

Take `CC1=C2C[C@H]3[C@@H](CC=C4C[C@@H](O)CC[C@@]43C)[C@@H]2CC[C@]12O[C@@H]1C[C@H](C)CN[C@H]1[C@H]2C`: the inhibition result with NIH/3T3 [1] and in the data set on NIH/3T3 [6] was “Active” in each case. The inhibition entry with NIH/3T3 [2], in the data set on NIH/3T3 [3], in the data set with NIH/3T3 [4] and in the data set with NIH/3T3 [5] was “inactive” in each case.

With `CCCN[C@H]1CC[C@H](N(Cc2cccc(-c3ccncc3)c2)C(=O)c2sc3ccccc3c2Cl)CC1`, the inhibition result in the data set on NIH/3T3 [1], in the data set with NIH/3T3 [9] and in the data set with NIH/3T3 [6] was “Active” throughout. Besides, the Activity result (in data set [7]; in data set [8]; in the data set with NIH3T3 [10]; in data set [11]; in data set [12]; in the data set with NIH3T3 [14]) was “Non-Toxic” throughout. The inhibition entry in the data set with NIH/3T3 [2], with NIH/3T3 [3], with NIH/3T3 [4] and in the data set on NIH/3T3 [5] was “inactive” throughout. Moreover, the result in [13] was Active.

For the compound `CCCN(C(=O)OC(C)c1cc(OC)c(OCCCC(=O)O)cc1[N+](=O)[O-])[C@H]1CC[C@H](N(Cc2cccc(-c3ccncc3)c2)C(=O)c2sc3ccccc3c2Cl)CC1` (stereo partly specified), the Activity result (in [15]; in [17]; in [7]; in data set [8]; in data set [18]; in the data set with NIH3T3 [10]) was “Non-Toxic” in each case. Moreover, the Activity entry (in [11]; in data set [22]; in data set [12]; in the data set with NIH3T3 [14]) was “Non-Toxic” in each case. Also, the degraded at 1000 µM in data set [16] stood at 90%; in data set [19] it was 100%. For the same compound, the inhibition result in the data set with NIH/3T3 [20] was “Active”. Besides, the result in [21] was inactive. For the same compound, the result in data set [13] was Active. Also, the inhibition entry in the data set on NIH/3T3 [23] was “inactive”.
